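Tested at 5 concentrations; 48 h exposure; 96-well plates; endpoints linearly interpolated, else capped at highest concentration. At the TGI there is no net growth.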
How the values were obtained:
Test in all cases: NCI anticancer screen, dose series, 48 h
[1] = system: 786-0 renal
[2] = system: A498 renal
[3] = system: A549 NSCLC
[4] = system: ACHN renal
[5] = system: BT-549 breast
[6] = system: CAKI-1 renal
[7] = system: COLO 205 colon
[8] = system: DU-145 prostate
[9] = system: EKVX NSCLC
[10] = system: HCC-2998 colon
[11] = system: HCT-116 colon
[12] = system: HCT-15 colon
[13] = system: HOP-62 NSCLC
[14] = system: HOP-92 NSCLC
[15] = system: HS 578T breast
[16] = system: HT29 colon
[17] = system: IGROV1 ovarian
[18] = system: K-562 leukemia
[19] = system: KM12 colon
[20] = system: LOX IMVI melanoma
[21] = system: M14 melanoma
[22] = system: MALME-3M melanoma
[23] = system: MCF7 breast
[24] = system: MDA-MB-231 breast
[25] = system: MDA-MB-435
[26] = system: MDA-N
[27] = system: MOLT-4 leukemia
[28] = system: NCI-H226 lung
[29] = system: NCI-H23 lung
[30] = system: NCI-H460 lung
[31] = system: NCI-H522 lung
[32] = system: NCI/ADR-RES ovarian
[33] = system: OVCAR-3 ovarian
[34] = system: OVCAR-4 ovarian
[35] = system: OVCAR-5 ovarian
[36] = system: OVCAR-8 ovarian
[37] = system: PC-3 prostate
[38] = system: RPMI-8226 leukemia
[39] = system: SF-268 CNS
[40] = system: SF-295 CNS
[41] = system: SF-539 CNS
[42] = system: SK-MEL-2 melanoma
[43] = system: SK-MEL-28 melanoma
[44] = system: SK-MEL-5 melanoma
[45] = system: SK-OV-3 ovarian
[46] = system: SN12C renal
[47] = system: SNB-19 CNS
[48] = system: SNB-75 CNS
[49] = system: SR leukemia
[50] = system: SW-620 colon
[51] = system: T-47D breast
[52] = system: TK-10 renal
[53] = system: U251 CNS
[54] = system: UACC-257 melanoma
[55] = system: UACC-62 melanoma
[56] = system: UO-31 renal
[57] = system: CCRF-CEM leukemia
[58] = system: HL-60(TB) leukemia

Structure (SMILES): CCOC(=O)C1=C(C#N)S(=O)(=O)c2c(oc(C)c2C)N1
- TGI [1]: > 100 µM
- TGI [2]: > 100 µM
- TGI [3]: > 100 µM
- TGI [4]: > 100 µM
- TGI [5]: > 100 µM
- TGI [6]: > 100 µM
- TGI [7]: > 100 µM
- TGI [8]: > 100 µM
- TGI [9]: > 100 µM
- TGI [10]: > 100 µM
- TGI [11]: > 100 µM
- TGI [12]: > 100 µM
- TGI [13]: > 100 µM
- TGI [14]: > 100 µM
- TGI [15]: > 100 µM
- TGI [16]: > 100 µM
- TGI [17]: > 100 µM
- TGI [18]: > 100 µM
- TGI [19]: > 100 µM
- TGI [20]: > 100 µM
- TGI [21]: > 100 µM
- TGI [22]: > 100 µM
- TGI [23]: > 100 µM
- TGI [24]: > 100 µM
- TGI [25]: > 100 µM
- TGI [26]: > 100 µM
- TGI [27]: > 100 µM
- TGI [28]: > 100 µM
- TGI [29]: > 100 µM
- TGI [30]: > 100 µM
- TGI [31]: > 100 µM
- TGI [32]: > 100 µM
- TGI [33]: > 100 µM
- TGI [34]: > 100 µM
- TGI [35]: > 100 µM
- TGI [36]: > 100 µM
- TGI [37]: > 100 µM
- TGI [38]: > 100 µM
- TGI [39]: > 100 µM
- TGI [40]: > 100 µM
- TGI [41]: > 100 µM
- TGI [42]: > 100 µM
- TGI [43]: > 100 µM
- TGI [44]: > 100 µM
- TGI [45]: > 100 µM
- TGI [46]: > 100 µM
- TGI [47]: > 100 µM
- TGI [48]: > 100 µM
- TGI [49]: > 100 µM
- TGI [50]: > 100 µM
- TGI [51]: > 100 µM
- TGI [52]: > 100 µM
- TGI [53]: > 100 µM
- TGI [54]: > 100 µM
- TGI [55]: > 100 µM
- TGI [56]: > 100 µM

Structure (SMILES): O=[N+]([O-])c1ccc(NC(=S)N=Nc2c(O)[nH]c3ccccc23)cc1
- TGI [1]: 18.4 µM
- TGI [3]: 21.5 µM
- TGI [4]: 21.1 µM
- TGI [5]: 55.4 µM
- TGI [6]: 21.7 µM
- TGI [57]: > 100 µM
- TGI [7]: 26.3 µM
- TGI [8]: 29.5 µM
- TGI [9]: 43 µM
- TGI [10]: 26.7 µM
- TGI [11]: 18.6 µM
- TGI [12]: 16.7 µM
- TGI [58]: > 100 µM
- TGI [13]: 18.1 µM
- TGI [14]: 30.7 µM
- TGI [15]: 59.8 µM
- TGI [16]: > 100 µM
- TGI [17]: 29.3 µM
- TGI [18]: > 100 µM
- TGI [19]: 78.2 µM
- TGI [20]: 36.3 µM
- TGI [21]: 25.7 µM
- TGI [22]: 21.9 µM
- TGI [23]: 38.1 µM
- TGI [24]: 13.9 µM
- TGI [25]: 53.7 µM
- TGI [26]: 30.2 µM
- TGI [27]: 19.8 µM
- TGI [29]: 54.5 µM
- TGI [30]: 29.2 µM
- TGI [31]: 34.9 µM
- TGI [32]: 23.7 µM
- TGI [33]: 28.1 µM
- TGI [34]: 79.6 µM
- TGI [35]: 43.3 µM
- TGI [36]: 3.16 µM
- TGI [37]: 16.6 µM
- TGI [38]: > 100 µM
- TGI [39]: 37.9 µM
- TGI [40]: 21.5 µM
- TGI [41]: 31.1 µM
- TGI [42]: 23.3 µM
- TGI [43]: 36.9 µM
- TGI [44]: 24 µM
- TGI [45]: 14.8 µM
- TGI [46]: 63 µM
- TGI [47]: 36.4 µM
- TGI [48]: 31.4 µM
- TGI [49]: > 100 µM
- TGI [50]: 34.2 µM
- TGI [51]: 37.7 µM
- TGI [53]: 38.7 µM
- TGI [54]: 47.3 µM
- TGI [55]: 24 µM
- TGI [56]: 19.3 µM
